Data set [1] concerns normal human bladder epithelial cells (HUC). Kind of data set: Cell cycle arrest and apoptosis in HUC. Format: cell-based. The conditions noted are these: 7.5 and/or 15 microM. On the procedure:
FIG. 3. The effect of AITC on cell survival and proliferation. AITC was evaluated at the indicated concentrations in human bladder cancer UM-UC-3 cells, rat bladder cancer AY-27 cells, and normal human bladder epithelial cells (HUC). A. Cell growth inhibition, measured by MTT assay, 72-h AITC treatment. IC50 was calculated from nonlinear regression curve fit. B. Cell cycle arrest (□, subG1; ? , G1; ? , 5; ▪, G2/M), measured by flow cytometry, 24 h AITC treatment. C. Apoptosis induction, measured by an ELISA assay, 24 h AITC treatment. Mean±SE, n=3-6), *P<0.05.

Data set [2] has as its system UM-UC-3 cells. The data set can be described thus: Wright-Giemsa staining for mitotic figures, UM-UC-3 cells. It is filed as cell-based, human. The note with it: 24 h, compared with G2/M by flow cytometry. On the procedure:
(§1) FIG. 4. Effect of AITC on mitosis, tubulin expression and apoptosis in human bladder cancer UM-UC-3 cells. Cells were treated with vehicle or AITC for 24 h (each numerical value is mean±SD). A. Flow cytometry analysis for cell cycle arrest. B. Wright-Giemsa staining for counting mitotic figures. Arrows point to cells in mitosis or mitotic catastrophe. C. Immunofluorescent staining of microtubules (green color) and DNA staining with DAPI (blue color). D. Western blotting of tubulins (GAPDH as a loading control). E. Loss of mitochondrial transmembrane potential (Δψm) measured by flow cytometry. F. Western blotting of caspase-9 and caspase-3 (GAPDH as a loading control). G. Apoptotic cells (TUNEL cells) measured by flow cytometry. Cells in F and G were co-treated with or without 20 microM Z-LEHD-FMK (a caspase-9 inhibitor).
(In flow cytometry, cells or beads pass a laser one at a time.)

Another data set relates to tubulin. Kind of data set: Tubulin polymerization in vitro assay. Format: biochemical. The conditions noted are these: result not shown.
Data set [3] has as its system UM-UC-3 cells. The data set can be described thus: Mitochondria-mediated apoptosis in UM-UC-3 cells (Δψm, cytochrome c, TUNEL). It is filed as cell-based, human. On the procedure:
as §1

For data set [4] the following is noted: female, F344, rat, in vivo. On the procedure: FIG. 7. Pharmacokinetics of AITC in F344 rats. A & B. Five groups of 4-6 female rats were administered a single oral dose of AITC at 10 or 300 micromols/kg and then kept in metabolism cages for urine collection (1 rat/cage) for 1.5, 3, 6, 12 and 24 h. At the end of each time period, blood was drawn from one group of rats, from which plasma was prepared. C. Rats bearing orthotopic bladder tumors, 3 weeks after AY-27 cell inoculation, were administered a single oral dose of AITC at 300 micromols/kg. Orthotopic tumors were removed from the rats at 0 h (T1), 1.5 h (T2), and 6 h (T3) after AITC dosing. Concentrations of AITC equivalent in plasma, urine and tumor tissue homogenates were determined by the cyclocondensation assay developed in our lab. Each value is a mean±SE.
Rats were administered a single oral dose of AITC at 10 or 300 micromols/kg, and urine and blood were collected at several time intervals up to 24 h. Cyclocondensation assay was used for measurement of AITC equivalent in the samples [12]. Oral administration of AITC led to dose-dependent increase in the levels of AITC equivalent in both plasma and urine (FIGS. 7A & 7B). […]
AITC and NAC-AITC contents in the plasma and urine were determined using the high-performance liquid chromatography (HPLC)-based cyclocondensation assay, and are expressed as AITC equivalent or NAC-AITC equivalent. […]

A short description of data set [5]: Dissociation of NAC-AITC in phosphate buffer (HPLC). It is filed as physicochemical. The conditions noted are these: pH 7.4, 37° C. Here is the method:
FIG. 11. Dissociation of NAC-AITC. NAC-AITC at 100 μM was freshly prepared in 20 mM sodium phosphate buffer (pH 7.4) containing 1% DMSO and incubated at 37° C. for 0, 0.5, 1, 2, 3, 4, 5 and 24 h. At each time point, an aliquot of the solution was analyzed for remaining NAC-AITC by HPLC. Each value is a mean±SD (n=3).
Measurement of dissociation of NAC-AITC. The assay was based on a known protocol. Briefly, a solution of NAC-AITC was prepared as rapidly as possible by dilution of 0.2 ml of 5 mM NAC-AITC freshly prepared in 20 mM sodium phosphate buffer (pH 7.4): DMSO (1:1) with 20 mM sodium phosphate buffer (pH 7.4) to 10 ml, resulting in a 0.1 mM NAC-AITC solution in 1% DMSO. An aliquot (0.05 ml) was immediately analyzed by HPLC; the remainder of the solution was incubated at 37° C. on a shaker, and an aliquot (0.05 ml) was analyzed by HPLC at different time points up to 24 h. The HPLC condition was the same as used in the urine analysis described above. A plot of the conjugate peak area remaining versus time was generated to determine the half-time of decomposition.

The structures appear in SMILES notation.

As to `C=CCN=C=S` [AITC, allyl isothiocyanate], the “cell cycle arrest and apoptosis in HUC” value in data set [1] was “failed to cause cell cycle arrest and apoptosis”. In addition, in the data set with UM-UC-3 cells [2], the arrest in mitosis entry is “arrested cells almost exclusively in mitosis”. In addition, the “rate of tubulin polymerization” value in the data set on tubulin is recorded as “no effect”. In the data set on UM-UC-3 cells [3] (24 h, flow cytometry), the TUNEL-positive cells entry is on record as “formation of TUNEL-positive cells” and the mitochondrial transmembrane potential entry is “caused a loss of mitochondrial transmembrane potential”. Further, the cytochrome c release entry with UM-UC-3 cells [3] (result not shown) was “release of cytochrome c from mitochondria to cytoplasm”. In addition, in data set [4], the “average 24-h urinary concentration as % of peak urinary concentration” value is recorded as 11.6-45.2% and the “average 24-h urinary concentration relative to plasma concentration at 24 h” value was 4,911-14,501 fold higher.

For the molecule `C=CCNC(=S)SC[C@H](NC(C)=O)C(=O)O` [NAC-AITC, N-acetyl-S—(N-allylthiocarbamoyl)cysteine], the half-time of dissociation in data set [5] is around 12 h.

For the origin of these results see patent US9486434B2, “Method for delivery and use of isothiocyanates for prophylaxis and/or therapy of bladder cancer” (Health Research Inc., priority 2010, dated 2016).
